Measured values from patent publication US20100130607A1, “NEUROPROTECTION IN DEMYELINATING DISEASES” (priority 2007, published 2010).
Entries after “also recorded” stand apart in the source; their conditions may differ. Where a name gives a salt, the structure may show the parent alone.

What was measured:
MOG-EAE in C57BL/6 mice [1] = assay: Blinded histological analysis of spinal cord in MOG-EAE, 72 days p.i.; format: in vivo; conditions: oral, vs methocel control; for numbers of CD 3 positive T cells infiltrating the spinal cord / numbers of Mac-3 positive macrophages and microglia infiltrating the spinal cord: 72 days after induction of MOG-EAE; for axonal loss (relative axonal density) / level of demyelination (% white matter): spinal cord, 72 days p.i.
Experimental: Treatment started at day -20 before the injection of MOG. The following compounds were administered orally to three groups of mice as follows: 1) Ca-monomethyl fumarate 5 mg/kg body weight bid; 2) dimethyl fumarate 15 mg/kg body weight bid; 3) 0.08% methocel as control. For analyzing the clinical course, data was pooled from two experiments (one experiment with 6 mice and another with 8 mice per group yielding a total number of 14 mice per experimental group). Histology-One experiment was terminated on day 72 p.i. for histologic evaluation. At that time point, 6 mice in the MMF and 6 mice in the control group were available for analysis. The DMF group consisted of 4 mice (2 non-EAE related drop-outs). Mice were anesthetized with ether, bled and perfused with 25 ml Ringer solution and 10 ml of 4% paraformaldehyde in buffered PBS. Spinal cord was dissected out and fixed overnight in 4% paraformaldehyde in buffered PBS at 4° C. before embedding in paraffin. Paraffin sections were stained with hematoxylin and eosin for visualization of inflammatory infiltrates and Luxol fast blue for visualization of demyelination. Coded sections from cervical, thoracic and lumbar spinal cord were evaluated by a blinded observer by means of overlaying a stereological grid and counting mean CD3 and Mac-3 positive cells within 3 visual fields (each 0.096 mm^2) with the most intense pathology under a 400-fold magnification. The extent of demyelination was assessed by relating the number of grid squares with demyelination to the total number of grid squares containing white matter over an average of 8-10 independent levels of spinal cord per mouse. CD3, Mac-3 positive cells and APP positive axons were quantified on 3 representative sections, each one of cervical, thoracic and lumbar spinal cord by counting 2 defined areas with the most intense pathology under a 40-fold magnification. Histological evaluation was performed as described in Eugster et al., Eur. J. Immunol., 1999, […].

MOG-EAE in C57BL/6 mice [2] = assay: Clinical course (clinical score) of active MOG-EAE; format: in vivo; conditions: oral, from day -20, up to 72 days p.i., vs methocel control
Experimental: Treatment started at day -20 before the injection of MOG. The following compounds were administered orally to three groups of mice as follows: 1) Ca-monomethyl fumarate 5 mg/kg body weight bid; 2) dimethyl fumarate 15 mg/kg body weight bid; 3) 0.08% methocel as control. For analyzing the clinical course, data was pooled from two experiments (one experiment with 6 mice and another with 8 mice per group yielding a total number of 14 mice per experimental group). Clinical evaluation-Symptoms were scored 1-10 on a daily basis as described in Linker et al., Nat. Med., 2002, […] (see also Hartung et al., Brain, 1988, 11, 1039-1059). Briefly, disease severity was scored as follows: 0, normal; 1, reduced tone of tail; 2, limp tail, impaired righting; 3, absent righting; 4, gait ataxia; 5, mild paraparesis of hindlimbs; 6, moderate paraparesis; 7, severe paraparesis or paraplegia; 8, tetraparesis; 9, moribund; 10, death. Relapses were defined as deterioration by 2 points or more within 2 days. […] Animals were pooled from two experiments (total number of 14 mice per group). Mice were followed until the late phase of the disease (72 days p.i.).

[3] = Ca-monomethyl fumarate 5 mg/kg bid

For COC(=O)/C=C/C(=O)OC [DMF, dimethyl fumarate, reference compound], the “numbers of CD 3 positive T cells infiltrating the spinal cord” value (MOG-EAE in C57BL/6 mice [1]; dimethyl fumarate 15 mg/kg bid) was “not significantly different”, the “numbers of Mac-3 positive macrophages and microglia infiltrating the spinal cord” value (MOG-EAE in C57BL/6 mice [1]; dimethyl fumarate 15 mg/kg bid) was “not significantly different” and the “axonal loss (relative axonal density)” value (MOG-EAE in C57BL/6 mice [1]; dimethyl fumarate 15 mg/kg bid) was “reduced”. The “level of demyelination (% white matter)” value (MOG-EAE in C57BL/6 mice [1]; dimethyl fumarate 15 mg/kg bid) was “reduced” and the “clinical score / disease course” value (MOG-EAE in C57BL/6 mice [2]; dimethyl fumarate 15 mg/kg body weight bid) was “significantly milder disease course; also recorded: effective to reduce the clinical score up to 72 days p.i”.
For COC(=O)/C=C/C(=O)O [MMF, Ca-monomethyl fumarate], the “numbers of CD 3 positive T cells infiltrating the spinal cord” value (MOG-EAE in C57BL/6 mice [1]; [3]) was “not significantly different”, the “numbers of Mac-3 positive macrophages and microglia infiltrating the spinal cord” value (MOG-EAE in C57BL/6 mice [1]; [3]) was “not significantly different” and the “axonal loss (relative axonal density)” value (MOG-EAE in C57BL/6 mice [1]; [3]) was “reduced demyelination and axonal loss”. The “level of demyelination (% white matter)” value (MOG-EAE in C57BL/6 mice [1]; [3]) was “reduced demyelination and axonal loss” and the “clinical score / disease course” value (MOG-EAE in C57BL/6 mice [2]; Ca-monomethyl fumarate 5 mg/kg body weight bid) was “not sufficient to significantly affect the clinical score”.
